Data as given in US9220767B2 (priority 2008, dated 2015).

Key:
[1] = tested on: three prototypical strains (A/Brisbane/10/2007, A/Brisbane/59/2007, and B/Florida/4/2006); assay: Indirect hemagglutination assay (IHA) of immunised mice sera, statements not split by strain; type: in vivo; conditions: for IHA titers induced by Fluarix vaccination: mice immunised twice with Fluarix + adjuvant, vs Fluarix alone (Example 3)
Procedure: (§1) Mice were injected by intramuscular route at day 0 and day 21 with: • NaCl, • 1 μg Fluarix® alone, • 1 μg Fluarix®+1 μg PBS-57/S, or • 1 μg Fluarix®+1 μg PBS-57/L.
(§2) Sera were collected at day 42 and reactivity with the three prototypical strains (A/Brisbane/10/2007, A/Brisbane/59/2007, and B/Florida/4/2006) of Fluarix® vaccine was assayed by measuring IHA titers for each of these strains (see FIG. 7).
(§3) Mice were injected by intramuscular route at day 0 and day 21 with: • nothing (naïve mice), • PBS, • 4 μg Agrippal® alone, • 8.9 μg Agrippal® alone, • 4 μg Agrippal®+1 μg PBS-57 in liposome formulation (PBS-57/L) or PBS-14 liposome formulation (PBS-14/L), or • 8.9 μg Agrippal®+1 μg PBS-57 in PEGylated form (PBS-57/S) or PBS-57/L or PBS-14/L.
(§4) Sera were collected at day 42 and reactivity with the three prototypical strains (H3 A/Brisbane/10/2007, H1 A/Brisbane/59/2007, and B/Florida/4/2006) of Agrippal® vaccine was assayed by measuring IHA titers for each of these strains (see FIG. 8).
Mice were injected by intramuscular route at day 0 with: • NaCl, • PBS-57/D alone, • PBS-57/L alone, • PBS-57/S alone, • 4 μg Agrippal® alone, • 8.9 μg Agrippal® alone, • 4 μg Agrippal®+1 μg PBS-57 in liposome formulation (PBS-57/L) or in pegylated form (PBS-57/S) or in DMSO (PBS-57/D), or • 8.9 μg Agrippal®+1 μg PBS-57/L or PBS-57/S or PBS-57/D.
Sera were collected at day 21 and reactivity with the three prototypical strains (H3 A/Brisbane/10/2007, H1 A/Brisbane/59/2007, and B/Florida/4/2006) of Agrippal® vaccine was assayed by measuring IHA titers for each of these strains (see FIG. 9).
Mice were injected by intramuscular route at day 0 with: • PBS, • 1 μg PBS-57 in DMSO (PBS-57/D) alone • 1 μg PBS-57 in PEGylated form (PBS-57/S) alone, • 1 μg PBS-57 in liposome formulation (PBS-57/L) alone, • 4 μg Agrippal® alone, • 8.9 μg Agrippal® alone, • 4 μg Agrippal®+1 μg PBS-57/D, PBS-57/S or PBS-57/L, or • 8.9 μg Agrippal®+1 μg PBS-57/D, PBS-57/S or PBS-57/L.
(§5) Agrippal® vaccine comprises a mixture of A/Brisbane/10/2007-like, A/Brisbane/59/2007-like, and B/Florida/4/2006-like strains.
Sera were collected at day 21 and reactivity with the three prototypical strains (H3 A/Brisbane/10/2007, H1 A/Brisbane/59/2007, and B/Florida/4/2006) of Agrippal® vaccine was assayed by measuring IHA titers for each of these strains (see FIG. 20).

[2] = tested on: IgG1, IgG2a and IgG2b; assay: Detection of IgG1, IgG2a and IgG2b in mouse sera by ELISA after intramuscular Agrippal and adjuvants; type: in vivo, mice; conditions: for level of IgG1 in sera / level of IgG2a in sera / level of IgG2b in sera: 1, 4 or 8.9 μg Agrippal alone or + 1 μg adjuvant, ELISA; for level of IgG1 when the dose of Agrippal combined to the adjuvant was increased / level of IgG2b when the dose of Agrippal combined to the adjuvant was increased / level of IgG2a when the dose of Agrippal combined to the adjuvant was increased: Agrippal 1 to 8.9 μg + 1 μg adjuvant
Procedure: Mice were injected at day 0 and day 21 with: • PBS, • 1 μg Agrippal® alone, • 1 μg Agrippal®+1 μg PBS-57 in pegylated form or liposome formulation (PBS-57/S or PBS-57/L) or PBS-14 liposome formulation (PBS-14/L), • 4 μg Agrippal® alone, • 4 μg Agrippal®+1 μg PBS-57/S or PBS-57/L or PBS-14/L, • 8.9 μg Agrippal® alone, or • 8.9 μg Agrippal®+1 μg PBS-57/S or PBS-57/L or PBS-14/L.
Sera were collected at day 42 and the IgG1, IgG2a and IgG2b content of the sera was analysed by ELISA.
Mice were injected at day 0 with: • PBS, • 1 μg Agrippal® alone, • 1 μg Agrippal®+1 μg PBS-57 in pegylated form or liposome formulation (PBS-57/S or PBS-57/L) • 4 μg Agrippal® alone, • 4 μg Agrippal®+1 μg PBS-57/S or PBS-57/L, • 8.9 μg Agrippal® alone, or • 8.9 μg Agrippal®+1 μg PBS-57/S or PBS-57/L.
Sera were collected at day 21 and the IgG1 and IgG2b content of the sera was analysed by ELISA.

[3] = tested on: H3 A/Brisbane/10/2007; assay: Indirect hemagglutination assay (IHA) of immunised mice sera, strain A/Brisbane/10/2007; type: in vivo; conditions: 1 μg Fluarix + 1 μg adjuvant i.m. day 0 and 21; sera day 42; vs Fluarix alone
Procedure: as §1
(§6) Fluarix® vaccine comprises a mixture of A/Brisbane/10/2007-like, A/Brisbane/59/2007-like, and B/Florida/4/2006-like strains.
as §2, §3, §5
Sera were collected at day 42 and reactivity with the three prototypical strains (H3 A/Brisbane/10/2007, H1 A/Brisbane/59/2007, and B/Florida/4/2006) of Agrippal® vaccine was assayed by measuring IHA titers for each of these strains (see FIG. 8). […]

[4] = tested on: H1 A/Brisbane/59/2007; assay: Indirect hemagglutination assay (IHA) of immunised mice sera, strain A/Brisbane/59/2007; type: in vivo; conditions: 1 μg Fluarix + 1 μg adjuvant i.m. day 0 and 21; sera day 42; vs Fluarix alone
Procedure: as §1, §6, §2, §3, §5, §4

[5] = tested on: B/Florida/4/2006; assay: Indirect hemagglutination assay (IHA) of immunised mice sera, strain B/Florida/4/2006; type: in vivo; conditions: 1 μg Fluarix + 1 μg adjuvant i.m. day 0 and 21; sera day 42; vs Fluarix alone
Procedure: as §1, §6, §2, §3, §5, §4

[6] = tested on: iNKT (Vβ11/Vα24+ cells) from adults PBMC; assay: In vitro iNKT activation, adult PBMC; type: cell-based; conditions: 7 days culture with IL-2, 10 or 100 ng/ml, compared to 100 ng α-GalCer
Procedure: (§7) Adults PBMC and cord blood mononuclear cells (CBMC) were either non stimulated, or cultured in vitro with IL-2 alone or IL-2 combined with 100 ng α-GalCer or PBS-57/D or PBS-57/L (at 10 ng/ml or 100 ng/ml).
(§8) After 7 days of culture, activation of iNKT was determined by assessing the percentage of Vβ11/Vα24^+ cells amplified from PBMC or CBMC (FIGS. 13 and 14).

[7] = tested on: iNKT (Vβ11/Vα24+ cells) from cord blood mononuclear cells (CBMC); assay: In vitro iNKT activation, cord blood mononuclear cells; type: cell-based; conditions: 7 days culture with IL-2, 10 or 100 ng/ml, compared to 100 ng α-GalCer
Procedure: as §7, §8

[8] = mice injected day 0 and day 21, sera day 42
[9] = single injection day 0, sera day 21
[10] = two injections (day 0, 21), sera day 42
[11] = mice immunised twice (day 0, 21) with Agrippal + 1 μg adjuvant, sera day 42 (Example 4)
[12] = single injection day 0 of Agrippal + 1 μg adjuvant, sera day 21 (Example 5)

| Compound | IHA titers induced by Fluarix vaccination [1] | level of IgG1 in sera [2, 8] | level of IgG2a in sera [2, 8] | level of IgG2b in sera [2, 8] | level of IgG1 in sera [2, 9] | level of IgG2b in sera [2, 9] | level of IgG1 when the dose of Agrippal combined to the adjuvant was increased [2, 9] | level of IgG2b when the dose of Agrippal combined to the adjuvant was increased [2, 9] | level of IgG1 when the dose of Agrippal combined to the adjuvant was increased [2, 10] | level of IgG2a when the dose of Agrippal combined to the adjuvant was increased [2, 10] | level of IgG2b when the dose of Agrippal combined to the adjuvant was increased [2, 10] | IHA titers induced by Fluarix vaccination against A/Brisbane/10/2007 [3] | IHA titers induced by Fluarix vaccination against A/Brisbane/59/2007 [4] | IHA titers induced by Fluarix vaccination against B/Florida/4/2006 [5] | IHA titers as compared with the Agrippal vaccine alone [1, 11] | IHA titers as compared with the Agrippal vaccine alone ([1]; single injection day 0 of 4 or 8.9 μg Agrippal + 1 μg adjuvant, sera day 21 (Example 12)) | IHA titers as compared with the Agrippal vaccine alone [1, 12] | activation of iNKT (percentage of Vβ11/Vα24+ cells amplified) [6] | activation of iNKT (percentage of Vβ11/Vα24+ cells amplified) [7] |
| --- | --- | --- | --- | --- | --- | --- | --- | --- | --- | --- | --- | --- | --- | --- | --- | --- | --- | --- | --- |
| CCCCCCCCCCCCCCCCCCCCCCCC(=O)N[C@@H](COC1OC(CNC(C)=O)C(O)C(O)C1O)[C@H](O)[C@H](O)CCCCCCCCCCCCCC (stereo partly shown) [PBS-96] | same results | – | – | – | – | – | – | – | – | – | – | – | – | – | – | – | – | – | – |
| CCCCCCCC/C=C\CCCCCCCCCCCCCC(=O)N[C@@H](COC1OC(CNC(C)=O)C(O)C(O)C1O)[C@H](O)[C@H](O)CCCCCCCCCCCCCC (stereo partly shown) [PBS-57] | – | increases | increases | increases | increases | increases | not significantly further increased | not significantly further increased | not significantly further increased | not significantly further increased | not significantly further increased | significantly enhanced | enhanced but to a less significant level | significantly enhanced | increased IHA titers | increased IHA titers | increased IHA titers | stronger activation of iNKT compared to α-GalCer | stronger activation of iNKT compared to α-GalCer |
| CCCCCCCCCCCCCCCCCCCCCCCCCC(=O)N[C@@H](COC1OC(CNC(C)=O)C(O)C(O)C1O)[C@H](O)[C@H](O)CCCCCCCCCCCCCC (stereo partly shown) [PBS-14] | same results | increases | increases | increases | – | – | – | – | not significantly further increased | not significantly further increased | not significantly further increased | – | – | – | increased IHA titers | – | increased IHA titers | – | – |
